Measured values taken from patent US20240245666A1, “DOSING REGIMENS” (Novartis AG, priority 2021, published 2024).
Several values for one entry are separate records, joined by “and”; a condition that tells them apart may be missing. Identical values can stand only once. Like-named read-outs stand apart in the source and are kept apart here.

Columns and labels:
clinical [1] = settings: human, in vivo, 40 mg
[2] = In vitro flux study: dissolution and permeation of asciminib film-coated tablets through an artificial lipid membrane; format: in vitro ADME; settings: 2×20 mg film-coated tablets; for flux rate (permeation through an artificial lipid membrane): 37° C.
Method: The donor compartment of a United States Pharmacopeia, Method II (USP II) dissolution apparatus (Distek corporation; New Jersey, United States) was filled with 900 mL maleate buffer containing either low concentrations of bile salts (imitating fasted conditions; Fasted State Simulated Intestinal Fluid [FaSSIF]; 3 mM taurocholate/taurodeoxycholate, 0.2 mM phospholipids/lysophospholipids, pH 5.8), high concentrations of bile salts (imitating fed intestinal conditions; Fed State Simulated Intestinal Fluid [FeSSIF]; 10 mM taurocholate/taurodeoxycholate, 2 mM phospholipids/lysophospholipids, 0.8/5.0 mM oleate/glycerol monoleate, pH 6.0), or no bile salts (control; pH 6.5). […] Two replicates per condition were performed.

[3] = Phase I study, FE study group: asciminib under fasted, low-fat meal and high-fat meal conditions (PK and safety); settings: for asciminib AUCinf, Gmean / asciminib AUCinf, Median / asciminib AUCinf, adjusted Gmean / asciminib AUClast, Gmean / asciminib AUClast, Median / asciminib AUClast, adjusted Gmean / asciminib Cmax, Gmean / asciminib Cmax, Median / asciminib Cmax, Range / asciminib Cmax, adjusted Gmean / asciminib T1/2, Range / asciminib Tmax, Range / reduction in asciminib exposure (AUCinf; AUCinf and AUClast) compared with fasted conditions / asciminib Tmax, Median: single 40 mg;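 further: healthy volunteers, open-label single-center study, PK parameters from individual plasma concentration-time profiles by non-compartmental analysis, 7-day washout between treatment periods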
[4] = initial asciminib tablet formulations, cited from earlier work
clinical [5] = settings: human, plasma, oral, 40 mg
[6] = single agent, patients with CML; cited from earlier work
[7] = Phase I study, DDI study group: asciminib with or without imatinib at steady state under low-fat meal conditions (PK and safety); settings: imatinib 400 mg qd steady state alone (Day 12)
[8] = control buffer, no bile salts (pH 6.5)
[9] = fasted state buffer (FaSSIF, pH 5.8)
[10] = fed state buffer (FeSSIF, pH 6.0)

O=C(Nc1ccc(OC(F)(F)Cl)cc1)c1cnc(N2CC[C@@H](O)C2)c(-c2ccn[nH]2)c1 [asciminib, N-[4-(Chlorodifluoromethoxy)phenyl]-6-[(3R)-3-hydroxypyrrolidin-1-yl]-5-(1H-pyrazol-5-yl)pyridine-3-carboxamide]
clearance (clinical [1]): 185 mL/min | dissolution [2, 8]: 82.3% | flux rate (permeation through an artificial lipid membrane) [2, 8]: 2.66 µg/min | dissolution [2, 9]: 93.1% | flux rate (permeation through an artificial lipid membrane) [2, 9]: 1.45 µg/min | dissolution [2, 10]: 94.2% | flux rate (permeation through an artificial lipid membrane) [2, 10]: 0.44 µg/min | participants with at least 1 AE ([3]; FE group, 11 of 24 participants): 45.8% | participants with oropharyngeal pain and rhinitis (each) ([3]; FE group, each n=2): 8.3% | asciminib AUCinf, Gmean ([3]; fasted, n=24): 5830 ng·h/mL | asciminib AUCinf, Median ([3]; fasted, n=24): 5890 ng·h/mL | asciminib AUCinf, adjusted Gmean ([3]; fasted, n=24): 5830 ng·h/mL | asciminib AUClast, Gmean ([3]; fasted, n=24): 5730 ng·h/mL | asciminib AUClast, Median ([3]; fasted, n=24): 5820 ng·h/mL | asciminib AUClast, adjusted Gmean ([3]; fasted, n=24): 5730 ng·h/mL | asciminib Cmax, Gmean ([3]; fasted, n=24): 550 ng/mL | asciminib Cmax, Median ([3]; fasted, n=24): 572 ng/mL | asciminib Cmax, Range ([3]; fasted, n=24): 280 to 1050 ng/mL | asciminib Cmax, adjusted Gmean ([3]; fasted, n=24): 550 ng/mL | asciminib T1/2, Range ([3]; fasted, n=24): 9.18 to 19.1 h | asciminib Tmax, Range ([3]; fasted, n=24): 1.00 to 5.00 h | reduction in asciminib exposure (AUCinf; AUCinf and AUClast) compared with fasted conditions ([3]; high-fat meal): 62.3% and 62-63% | asciminib AUCinf, Gmean ([3]; high-fat meal, n=24): 2200 ng·h/mL | asciminib AUCinf, Median ([3]; high-fat meal, n=24): 2040 ng·h/mL | asciminib AUCinf, adjusted Gmean ([3]; high-fat meal, n=24): 2200 ng·h/mL | asciminib AUClast, Gmean ([3]; high-fat meal, n=24): 2130 ng·h/mL | asciminib AUClast, Median ([3]; high-fat meal, n=24): 1960 ng·h/mL | asciminib AUClast, adjusted Gmean ([3]; high-fat meal, n=24): 2130 ng·h/mL | asciminib Cmax, Gmean ([3]; high-fat meal, n=24): 175 ng/mL | asciminib Cmax, Median ([3]; high-fat meal, n=24): 159 ng/mL | asciminib Cmax, Range ([3]; high-fat meal, n=24): 82.2 to 423 ng/mL | asciminib Cmax, adjusted Gmean ([3]; high-fat meal, n=24): 175 ng/mL | asciminib T1/2, Range ([3]; high-fat meal, n=24): 8.81 to 18.1 h | asciminib Tmax, Median ([3]; high-fat meal, n=24): 4.01 h | asciminib Tmax, Range ([3]; high-fat meal, n=24): 1.00 to 8.00 h | reduction in asciminib exposure (AUCinf; AUCinf and AUClast) compared with fasted conditions ([3]; low-fat meal): 30% | asciminib AUCinf, Gmean ([3]; low-fat meal, n=23): 4130 ng·h/mL | asciminib AUCinf, Median ([3]; low-fat meal, n=23): 4300 ng·h/mL | asciminib AUCinf, adjusted Gmean ([3]; low-fat meal, n=23): 4080 ng·h/mL | asciminib AUClast, Gmean ([3]; low-fat meal, n=23): 4060 ng·h/mL | asciminib AUClast, Median ([3]; low-fat meal, n=23): 4270 ng·h/mL | asciminib AUClast, adjusted Gmean ([3]; low-fat meal, n=23): 4010 ng·h/mL | asciminib Cmax, Gmean ([3]; low-fat meal, n=23): 363 ng/mL | asciminib Cmax, Median ([3]; low-fat meal, n=23): 365 ng/mL | asciminib Cmax, Range ([3]; low-fat meal, n=23): 172 to 709 ng/mL | asciminib Cmax, adjusted Gmean ([3]; low-fat meal, n=23): 359 ng/mL | asciminib T1/2, Range ([3]; low-fat meal, n=23): 9.70 to 17.7 h | asciminib Tmax, Median ([3]; low-fat meal, n=23): 3.00 h | asciminib Tmax, Range ([3]; low-fat meal, n=23): 0.997 to 5.00 h | decreased asciminib exposure compared with the fasted state ([4]; high-fat meal): ~65% and 63-64% | decreased asciminib exposure compared with the fasted state ([4]; low-fat meal): ~30% and 30-31% | half-life (clinical [5]): 13.5 h | maximum tolerated dose (not reached) [6]: > 200 mg twice daily

Cc1ccc(NC(=O)c2ccc(CN3CCN(C)CC3)cc2)cc1Nc1nccc(-c2cccnc2)n1 [imatinib]
imatinib AUC0-24h, Gmean [7]: 33,600 ng×h/mL | imatinib AUClast, Gmean [7]: 33,600 ng×h/mL
